Assay results as given in patent US20060167106A1, “Compounds acting at the centrosome” (priority 2004, published 2006).
“Also recorded” adds a separate entry of the source. Non-standard residues stand in square brackets, D forms with d. Residues, ends and D or L forms follow the SMILES beside them. *: point of attachment. Nle = CCCC[C@H](N)C(=O)O; Cbz = O=C(OCc1ccccc1)*

Experiments:
[1] = molecular target: T1, bovine red blood cell 20S proteasome (Bos taurus, UniProt Q32KL2); experiment: 20S Proteasome Assay (in vitro, Suc-Leu-Val-Tyr-AMC); type: biochemical; settings: isolated 20S proteasome
T1 construct: bovine red blood cell 20S proteasome; purchased Calbiochem; host or cells: purified from bovine red blood cells
Experimental: 190 μl of reaction buffer (500 mM HEPES, 10 nM EDTA, pH 7.6), containing 0.03% SDS was pre-incubated for 5 minutes at 37° C. in the presence of 0.2 μg of bovine red blood cell 20S proteasome (Calbiochem, San Diego, Calif.) for temperature equilibration. Subsequently, inhibitors or Compound 1 were added to the reaction mixture at a final DMSO concentration of 0.5%. The reaction was initiated by adding 10 μl of the peptide-AMC substrate (Calbiochem, San Diego, Calif.) to each well. The emitted fluorescence was then measured every third minute at 37° C. for 90 minutes by a fluorescence plate reader (FlexStation II, Molecular Devices, Sunnyvale, Calif.) at 460 nm (λex360 nm) wavelength.
The buffers and reagents for the assay were purchased from Calbiochem (20S Proteasome Assay Kit; Calbiochem, San Diego, Calif.). The principle of the assay is that the release of free AMC (7-Amino-4-methylcoumarin) following degradation of the substrate results in a fluorescent signal that is a measure of proteasome activity. The quantitative analysis of 20S proteasome activity was assayed as described.

[2] = system: Hsp70; experiment: Hsp70 Western blotting in MDA-435 cells; type: cell-based; settings: 0.5 μM; for induction of Hsp70 expression: 6 and 24 hours; for percentage change in Hsp70 expression relative to DMSO control: normalized to background and GAPDH
Experimental: Calculations of the percentage changes were made by using the automated band analysis tools of the Kodak 1D (v.3.6.3) program. Band intensities were normalized to background and GAPDH.
MDA-435 breast cancer cells were grown in 100 mm plastic-tissue culture dishes and treated for 6 and 24 hours with 0.5 μM Taxol, Compound 1, Taxol+Compound 1, MG132, ALLN, or DMSO. After treatment, cells were washed in PBS and cell lysates were prepared by adding 100 μL of lysis buffer, which contained 20 mM Tris-HCl (pH 7.5), 150 mM NaCl, 1 mM Na2EDTA, 1 mM EGTA, 1% Triton, 2.5 mM sodium pyrophosphate, 1 mM β-glycerophosphate, 1 mM Na3VO4 and 1 μg/ml leupeptin (Cell Signaling Technology, Beverly, Mass.) supplemented with 1 mM PMSF (Sigma, St. Louis, Mo.) immediately before use, on ice for 1 hour. After scraping, the lysates were cleared by centrifugation at 13,000 RPM for 10 minutes at 4° C. Protein content was determined using a Bradford assay and bovine serum albumin as a standard (Bio-Rad Laboratories, Hercules, Calif.). Samples were solubilized by boiling in SDS sample buffer and subjected to SDS-PAGE. The proteins were subsequently transferred to a PVDF membrane (Bio-Rad, Hercules, Calif.). After blocking with 5% nonfat milk in TBS for 1 hour, the blots were incubated with a mouse monoclonal anti-Hsp70 antibody, which is specific for the inducible form of Hsp70 (Clone C92F3A-5, 1:1000 dilution, Stressgen Biotechnologies Corp., Victoria, B.C., Canada) or a rabbit polyclonal anti-GAPDH antibody (1:2000 dilution, Abcam, Cambridge, Mass.) for 2 hours at room temperature. The horseradish-peroxidase-conjugated secondary antibodies, anti-mouse horse radish peroxidase, (1:2000, Bio-Rad, Hercules, Calif.) and goat anti-rabbit polyclonal horse radish peroxidase (1:2000, Abcam, Cambridge, Mass.)) were diluted in blocking buffer and incubated with the blot for 1 hour at room temperature. The secondary antibodies were detected by enhanced chemiluminescence (ECL, Amersham Biosciences, Piscataway, N.J.) and imaged using a Kodak 440 Image Station.

[3] = system: CHO-α-tubulin-YFP cells; experiment: α-tubulin-YFP localization in CHO-α-tubulin-YFP cells (fluorescence imaging); type: cell-based, Chinese hamster; settings: for accumulation of α-tubulin-YFP at the centrosomes: 5 hours; for accumulation of tubulin-YFP at the centrosomes: 24 hours; for accumulation of tubulin in the centrosomes (overall statement): CHO-tubulin-YFP cells, concentration and time not given; for accumulation of tubulin at the centrosomes versus in the nucleus (overall statement): cells treated, concentration not given
Description: Wild-type Chinese Hamster Ovary cells (WT CHO) cells were maintained in Ham's F-12 medium supplemented with 10% fetal bovine serum (FBS; HyClone, Logan, Utah). Cells of low density (˜20%) growing on 2-well chambered cover-slips (Labtek (Campbell, Calif.) or Fisher Scientific) were transfected with a mammalian expression vector encoding α-tubulin-YFP (Clontech, Palo Alto, Calif.) with the use of FuGENE 6 (Roche Molecular Biochemicals, Indianapolis, Ind.), according to the manufacturer's instructions. Twenty-four hours after transfection, the cells were cultured in 400 μg/ml G418 (Invitrogen, Carlsbad, Calif.)-containing selection medium for 2 weeks. Living cells were examined using a fluorescent microscope for α-tubulin-YFP expression. Cells in single colonies containing microtubules labeled with α-tubulin-YFP were lifted and expanded in G418-containing medium. Expression of α-tubulin-YFP was confirmed by the presence of the tubulin-YFP labeled microtubule pattern identical to immunostained microtubule pattern of non-transfected cells, as well as by subjecting the cells to Western blot analysis using an anti-GFP antibody (Roche Molecular Biochemicals, Basel, Switzerland) and confirming the correct mass of the α-tubulin-YFP chimera protein. Expressed tubulin-YFP was detected as a single band in Western blots. The tubulin-YFP expressing cell lines (referred as CHO-α-tubulin-YFP cells) were used in the studies.
CHO-α-tubulin-YFP cells were cultured in 2-well chambered cover-slips (Labtek (Campbell, Calif.) or Fisher Scientific) 24 hours before treatment. For comparison of the centrosomal effects of treatment with Compound 1, Compound 1+Taxol, and Taxol, CHO-α-tubulin-YFP cells were treated with Compound 1, Compound 1+Taxol, Taxol, or equivalent concentrations of DMSO-containing media for various time periods before imaging. For comparison of the effects of Compound 1 and known proteasome inhibitors on centrosomes, the nucleus, and perinuclear regions, CHO-α-tubulin-YFP cells were treated with Compound 1, ALLN (Calbiochem, San Diego, Calif.), lactacystin (Calbiochem, San Diego, Calif.) or MG132 (Calbiochem, San Diego, Calif.), and imaged at various time points from 3 hours to 24 hours after treatment.
Tubulin-YFP fluorescence in living cells or fixed cells was captured using a standard filter for FITC and objectives of 20× or 60× magnification on a Nikon TE300 microscope with a Leica DC50 color digital camera (Leica, Bannockburn, Ill.) or a CoolSnap HQ Monochrome CCD camera (Photonetrics, Tucson, Ariz.). The Leica DC50 and CoolSnapHQ cameras were controlled with Leica DC50 software and MetaVue/MetaMorph software, respectively (Universal Imaging Corp, Downingtown, Pa.).
CHO-α-tubulin-YFP cells were cultured in 2-well chambered cover-slips (Labtek (Campbell, Calif.) or Fisher Scientific) 24 hours before treatment. For comparison of effects on the centrosome, nucleus, and perinuclear regions, cells were treated with Compound 1 and known proteasome inhibitors including ALLN, MG132, Lactacystin, MG115, clasto-Lactacystin β-Lactone (cLβL), and Epoxomicin (10 μM final concentration for all except ALLN, which was used at 100 μM final concentration) (proteasome inhibitors were from Calbiochem, San Diego, Calif.) and imaged at various time points up to 24 hours during treatment.
Tubulin-YFP fluorescence in living cells or fixed cells was captured using a standard filter for FITC and objectives of 20× or 60× magnification on the Nikon TE300 microscope/digital imaging system.

[4] = system: MDA-435 breast cancer cells; experiment: Multi-ubiquitin Western blotting in MDA-435 cells; type: cell-based; settings: for increase of ubiquitinated proteins of the cell lysates: 500 nM
Experimental: Louis, Mo.) immediately before use, on ice for 1 hour. After scraping, the lysates were cleared by centrifugation at 13,000 RPM for 10 minutes at 4° C. Protein content was determined using a Bradford assay and bovine serum albumin as a standard (Bio-Rad Laboratories, Hercules, Calif.). Samples were solubilized by boiling in SDS sample buffer and subjected to SDS-PAGE. The proteins were subsequently transferred to a PVDF membrane (Bio-Rad, Hercules, Calif.). […] The alkaline phosphatase-conjugated secondary antibodies (Invitrogen, Carlsbad, Calif.) were diluted in blocking buffer and incubated with the blot for 1 hour at room temperature. The secondary antibodies were detected by the Western Breeze Chemiluminescent Kit (Invitrogen, Carlsbad, Calif.) and imaged using a Kodak 440 Image Station. Proteins targeted for degradation by the ubiquitin-dependent proteolytic pathway are tagged with multi-ubiquitin molecules. […] In this assay, accumulation of multi-ubiquitinated proteins in the cells is indicative of the impairment of proteasome activity.

[5] = system: 26S proteasome; experiment: Proteasome-sensor cells (HEK-293, GFP chimera), fluorescence imaging; type: cell-based; settings: HEK-293, 100 nM, 24 hours
Description: Specifically, the proteasome-sensor cells are HEK-293 cells stably transfected with a vector (proteasome-sensor vector) that encodes naturally-occurring reef coral Zoanthus sp. green fluorescent protein (GFP) fused to a specific degradation motif that targets the fusion protein for removal by the 26S proteasome. The background fluorescence observed in normal cells with active proteasomes is low. When proteasomes are inhibited, the fluorescent protein quickly accumulates. […] Millennium Pharmaceuticals, Inc., Cambridge, Mass.). […] Velcade (Millennium Pharmaceuticals Inc.) was used as a positive control in this assay (at 5 nM, 50 nM, 500 nM or 5 μM). Velcade stock solution was prepared according to the manufacturer's instructions. GFP fluorescence of the cells was imaged at various time points using a standard filter for FITC with the Nikon TE300 microscope/digital imaging system described herein.

[6] = system: CHO cells; experiment: Cell morphology, simultaneous time-lapse imaging of CHO cells; type: cell-based, Chinese hamster
Experimental: CV-1 cells and CHO cells were previously cultured in 2-well chambered cover-slips for 48 hours and incubated in 15 mM HEPES buffer-containing Ham's F-12/DMEM medium with different compounds. The cells were imaged using phase contrast settings with the Nikon TE300 microscope/digital imaging system. The cells were imaged ‘simultaneously’ under control of MetaVue software by capturing frames for cells from different conditions at the same time period using a motorized automated XYZ stage.
To track the effect of Compound 1 on live cells, non-transfected CV-1 cells with were treated with 500 nM Compound 1 and phase contrast time-lapse images were taken every 10 seconds. […] A very low concentration of Taxol (10 nM) was used.

SMILES | proteasome inhibitory activity in vitro (overall statement) [1] | induction of Hsp70 expression [2] | percentage change in Hsp70 expression relative to DMSO control ([2]; 6 hours of treatment) | percentage change in Hsp70 expression relative to DMSO control ([2]; 24 hours of treatment) | accumulation of α-tubulin-YFP at the centrosomes ([3]; CHO cells, 100 μM) | accumulation of YFP-tubulin in the nucleus ([3]; CHO cells, 100 μM, 8 hours post-treatment) | accumulation of tubulin-YFP at the centrosomes ([3]; CHO cells, 100 μM) | accumulation of tubulin in the centrosomes (overall statement) [3] | accumulation of tubulin at the centrosomes versus in the nucleus (overall statement) [3] | proteasome activity in vitro ([1]; 5 nM) | accumulation of α-tubulin-YFP at the centrosomes ([3]; CHO cells, 10 μM) | accumulation of α-tubulin-YFP in the nucleus ([3]; CHO cells, 10 μM, 8 hours post-treatment) | accumulation of tubulin-YFP at the centrosomes ([3]; CHO cells, 10 μM) | increase of ubiquitinated proteins of the cell lysates ([4]; 6 hours of treatment in cell culture) | increase of ubiquitinated proteins of the cell lysates ([4]; 24 hours of treatment in cell culture) | accumulation of multi-ubiquitinated proteins ([4]; MDA-435 cells, 0.5 μM, 6 and 24 hours) | accumulation of proteasome-sensor protein in cells [5] | effect on cell morphology ([6]; CHO cells, 10 nM, up to 210 minutes) | cell death ([6]; cells, after a certain period of treatment) | accumulation of tubulin-YFP at the centrosomes ([3]; CHO cells, 0.1 μM)
CCCC[C@@H](C=O)NC(=O)[C@H](CC(C)C)NC(=O)[C@H](CC(C)C)NC(C)=O [ALLN] (Ac-Leu-Leu-[Nle]-aldehyde) | exhibited proteasome inhibitory activity | unable to induce expression of Hsp70; also recorded: not capable of inducing Hsp70 expression | 82% | 137% | accumulation of α-tubulin-YFP at the centrosomes and perinuclear regions | caused the accumulation of YFP-tubulin in the nucleus | accumulation of tubulin-YFP at the centrosomes | caused accumulation of tubulin-YFP at the centrosomes and in the perinuclear region | both accumulation of tubulin at the centrosomes and in the nucleus |  |  |  |  |  |  |  |  |  |  | 
CC(C)C[C@@H](C=O)NC(=O)[C@H](CC(C)C)NC(=O)[C@H](CC(C)C)NC(=O)OCc1ccccc1 [MG132] (Cbz-Leu-Leu-Leu-aldehyde) | exhibited proteasome inhibitory activity | not as potent an inducer as Compound 1; also recorded: also induced Hsp70 expression after 6 and 24 hours of treatment, but did so less potently than Compound 1 or Compound 1+Taxol | 472% | 3016% |  |  |  | caused accumulation of tubulin-YFP at the centrosomes and in the perinuclear region | both accumulation of tubulin at the centrosomes and in the nucleus | detectable decrease in proteasome activity | accumulation of α-tubulin-YFP at the centrosomes and perinuclear regions | accumulation of α-tubulin-YFP in the nucleus; also recorded: caused the accumulation of YFP-tubulin in the nucleus | accumulation of tubulin-YFP at the centrosomes | 212.58 | 357.82 | caused similar accumulation of multi-ubiquitinated proteins |  |  |  | 
CC(=O)O[C@H]1C(=O)[C@@]2(C)[C@H]([C@H](OC(=O)c3ccccc3)[C@]3(O)C[C@H](OC(=O)[C@H](O)[C@@H](NC(=O)c4ccccc4)c4ccccc4)C(C)=C1C3(C)C)[C@]1(OC(C)=O)CO[C@@H]1C[C@@H]2O [Taxol] |  |  | 86% | 556% |  |  |  | no such effect |  |  |  |  |  |  |  |  | lack of proteasome-sensor protein in cells | did not cause significant cell morphological changes | cause cell death after a certain period of treatment | lack of accumulation of tubulin-YFP at the centrosomes
